Measurements published in patent publication US7674938B2, “Amino alcohol derivatives, pharmaceutical compositions containing the same, and use thereof” (Kissei Pharmaceutical Co., Ltd., priority 2003, dated 2010).
Like-named read-outs stand apart in the source and are kept apart here.

Assays:
human β2-adrenoceptor = target: T1, human β2-adrenoceptor (Homo sapiens, UniProt P07550); assay: Agonistic activities on human β2-adrenoceptor (cAMP in transfected CHO cells); type: cell-based; conditions: intrinsic activity: maximum reaction relative to isoproterenol maximum (100%)
T1 construct: expressed in transfected cells; host or cells: CHO cells
T1 sequence (P07550 whole entry): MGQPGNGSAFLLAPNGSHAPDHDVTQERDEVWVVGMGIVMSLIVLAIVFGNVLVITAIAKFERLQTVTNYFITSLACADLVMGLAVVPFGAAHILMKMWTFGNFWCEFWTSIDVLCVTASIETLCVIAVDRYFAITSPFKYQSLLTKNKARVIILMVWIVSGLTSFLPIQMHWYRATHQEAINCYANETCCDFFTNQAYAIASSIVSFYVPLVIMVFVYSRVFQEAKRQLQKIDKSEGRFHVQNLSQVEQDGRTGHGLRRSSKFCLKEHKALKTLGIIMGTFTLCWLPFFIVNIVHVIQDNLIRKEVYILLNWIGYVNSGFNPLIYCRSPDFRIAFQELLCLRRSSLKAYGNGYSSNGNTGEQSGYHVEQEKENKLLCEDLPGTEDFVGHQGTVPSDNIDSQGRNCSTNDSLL
Description: (§1) 2. Measurement of Agonistic Activities on Human β1- and β2-adrenoceptors
(2) Human β2-adrenoceptor
The primer which added a restriction enzyme recognition region to 5′ end was designed on the basis of the base information that is registered with GenBank/EMBL data base as Accession No. M15169, and the clone was obtained by performance of PCR using human bladder origin cDNA as a template. The clone was inserted in top GEM-T vector and was amplified in Escherichia coli bacteria as a plasmid, and it was purified and the sequence of full length and around of insertion sequence determined by means of 310 Genetic Analyzer (ABI).
(2) Preparation of Human β2-adrenoceptor Expressed Cells
(§2) The plasmid (80 ng) for expression obtained in the previous section was transfected into […] suspended in DMEM containing 10% fetal bovine serum by means of Lipofectoamine2000. These cells were dispensed in 96 well plate by 5×10^4 cells/100 μL per well and were cultured under an atmosphere of 5% CO2 at 37° C. for 24 hours, and were used for the assay.
(§3) 3) Measurement of Agonistic Activities on Human β1- and β2-adrenoceptors
(§4) Test compounds were dissolved in 50% dimethyl sulfoxide to make a 10^−2 M solution. Then, a series of 1:10 dilutions containing a maximal dose of […] were prepared using D-PBS (−). The series were used for a testing sample to measure activity. The culture medium of CHO cells of previous section was removed and washed twice with 200 μL D-PBS (−) per well. After that, 50 μL of 3-isobutyl-1-methylxanthine (SIGMA, 1 mM) was added and leaved at rest for 5 minutes, and 50 μL of testing sample were added in them and they were incubated under an atomosphere of 5% CO2 at 37° C. for 30 minutes. cAMP concentrations accumulated in cells were reacted in cAMP-Screen and were detected by Microplate LuminometerTR717.

human β3-adrenoceptor = target: T2, human β3-adrenoceptor (Homo sapiens, UniProt P13945); assay: Agonistic activities on human β3-adrenoceptor (cAMP accumulation in SK-N-MC cells); type: cell-based; conditions: for β3 receptor I.A.: intrinsic activity: maximum reaction relative to isoproterenol maximum (100%); for EC50: read-out: β3 receptor EC50
T2 construct: SK-N-MC cells (American Type Culture Collection, 1×10^5 cell/mL) were put in 96 well plates; host or cells: SK-N-MC cells
T2 sequence (P13945 whole entry): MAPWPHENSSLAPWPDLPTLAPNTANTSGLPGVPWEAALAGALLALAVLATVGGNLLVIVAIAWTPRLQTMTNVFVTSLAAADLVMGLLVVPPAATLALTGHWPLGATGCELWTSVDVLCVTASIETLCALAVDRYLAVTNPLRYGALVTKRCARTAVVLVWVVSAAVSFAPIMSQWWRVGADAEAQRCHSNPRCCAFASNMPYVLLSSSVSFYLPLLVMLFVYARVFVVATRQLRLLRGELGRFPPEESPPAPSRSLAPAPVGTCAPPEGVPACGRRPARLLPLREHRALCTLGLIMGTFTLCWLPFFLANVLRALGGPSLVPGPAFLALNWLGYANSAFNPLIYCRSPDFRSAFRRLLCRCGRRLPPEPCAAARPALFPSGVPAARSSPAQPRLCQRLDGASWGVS
Experimental: 1. Measurement of Agonistic Activities on Human β3-adrenoceptor
Test compounds were dissolved in 50% dimethyl sulfoxide to make a 10^−2 M solution. Then, a series of 1:10 dilutions containing a maximal dose of 1×10^−4 M were prepared using D-PBS (−) (Gibco-BRL: LIFE TECHNOLOGIES). The series were used for a testing sample to measure activity. SK-N-MC cells (American Type Culture Collection, 1×10^5 cell/mL) were put in 96 well plates by 100 μL and were cultured for about 24 hours. […] After that, 20 μL of 3-isobutyl-1-methylxanthine (SIGMA, 1×10^−2 mol/L D-PBS (−) solution) and 20 μL of testing sample were added in them and they were incubated under an atmosphere of 5% CO2 at 37° C. for 30 minutes. cAMP concentrations accumulated in cells were reacted in cAMP-Screen (Applied Biosystems) and were detected by Microplate LuminometerTR717 (Applied Biosystems).

ddY mice adipocytes = assay: Lipolysis in ddY mice adipocytes (free fatty acid release); type: cell-based; conditions: Mus musculus, Adipocyte, 2 h; read-out: Lipolysis acticity EC50 value
Experimental: Epididymal fat tissue of ddY mice (body weight 35 g) was removed and isolated to cells by collagenase (typeI, 1 mg/ml) in a culture medium (Krebs-Henseleit solution inclusive of 3% BSA, 1.2 mM CaCl2 and 25 mM HEPES but exclusive of NaHCO3; pH7.4) maintained at 37° C. After rinsing the cells in the culture medium, 50,000 cells/well were seeded in a 96-well culture plate and were incubated at 37° C. in the presence of various concentration of test compounds. Two hours later, the concentration of free fatty acid in the culture medium was measured and it was made as an index for lipolysis. The concentration of free fatty acid was measured by means of NEFA C-test wako (WAKO).
(R)-3′-[[2-[[2-(3-chlorophenyl)-2-hydroxyethyl]amino-ethoxy]-[1,1′-biphenyl]-3-carboxylic acid which was described in example 17 on WO99/65877 was also examined as a comparison example.

β1-adrenoceptor = target: T3, β1-adrenoceptor (Rattus norvegicus, UniProt P18090); assay: β1-adrenoceptor stimulation in isolated tissue: heart rate increment of rat atrium (Magnus method); set-up: species or system SD rat; conditions: read-out: β1 receptor EC50
T3 construct: The atrium of male SD rat (body weight 250-400 g) was isolated; from tissue; host or cells: SD rat atrium
T3 sequence (P18090 whole entry): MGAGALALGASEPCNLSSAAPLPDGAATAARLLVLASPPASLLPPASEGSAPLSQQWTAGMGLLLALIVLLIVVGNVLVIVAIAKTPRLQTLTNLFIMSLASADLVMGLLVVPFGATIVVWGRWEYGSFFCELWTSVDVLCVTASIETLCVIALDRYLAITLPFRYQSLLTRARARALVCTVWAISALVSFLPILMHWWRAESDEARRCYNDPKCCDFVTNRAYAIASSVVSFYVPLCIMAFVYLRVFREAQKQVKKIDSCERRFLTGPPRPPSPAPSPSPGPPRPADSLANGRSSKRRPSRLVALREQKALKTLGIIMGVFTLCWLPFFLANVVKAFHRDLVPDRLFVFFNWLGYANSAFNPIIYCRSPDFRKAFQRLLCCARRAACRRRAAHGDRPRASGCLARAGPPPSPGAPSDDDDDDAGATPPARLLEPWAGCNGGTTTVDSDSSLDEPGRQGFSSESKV
Experimental: 2) Measurement of β1-adrenoceptor Stimulation
The atrium of male SD rat (body weight 250-400 g) was isolated and the experiment was conducted according to a Magnus method. The preparation was suspended in a Krebs-Henseleit solution maintained at 37° C. and gassed with a mixed gas of 95% O2 and 5% CO2 and stretched at a tension of 0.5 g. The myocardial contractility was outputted through an isometric force transducer and recorded on an oscillograph through a tachometer. The test compound was added cumulatively into a Magunus bath.

human β1-adrenoceptor = target: T4, human β1-adrenoceptor (Homo sapiens, UniProt P08588); assay: Agonistic activities on human β1-adrenoceptor (cAMP in transfected CHO cells); type: cell-based; conditions: for β1 receptor I.A.: intrinsic activity: maximum reaction relative to isoproterenol maximum (100%)
T4 construct: Both ends of a domain including full length of human β1-adrenoceptor were amplified; expressed in transfected cells; host or cells: CHO cells
T4 sequence (P08588 whole entry): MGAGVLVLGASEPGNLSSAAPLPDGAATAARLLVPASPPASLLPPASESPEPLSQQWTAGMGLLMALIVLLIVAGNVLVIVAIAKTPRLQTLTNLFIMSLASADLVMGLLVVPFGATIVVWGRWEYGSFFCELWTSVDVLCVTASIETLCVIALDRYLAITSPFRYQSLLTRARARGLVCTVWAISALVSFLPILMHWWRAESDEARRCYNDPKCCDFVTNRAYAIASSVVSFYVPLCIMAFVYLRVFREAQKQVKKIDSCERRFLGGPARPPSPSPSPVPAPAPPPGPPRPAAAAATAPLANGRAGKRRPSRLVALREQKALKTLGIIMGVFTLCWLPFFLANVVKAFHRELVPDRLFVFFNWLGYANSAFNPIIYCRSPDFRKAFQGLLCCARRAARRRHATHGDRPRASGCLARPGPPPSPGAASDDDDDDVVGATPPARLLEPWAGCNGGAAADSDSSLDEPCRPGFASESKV
Description: as §1
(1) Human β1-adrenoceptor
Both ends of a domain including full length of human β1-adrenoceptor were amplified on the basis of DNA base information that is registered with GenBank/EMBL data base as Accession No. J03019. DNA fragment which was amplified was inserted into a vector for cloning and amplified in Escherichia coli bacteria. The plasmid which was cloned was inserted into a vector pCI-neo (Promega) for protein expression and plasmid DNA was extracted and purified, then it was used for a preparation of the following expression cells.
(1) Preparation of Human β1-adrenoceptor Expressed Cells
as §2, with “(320” for “(80”, “expression which was” for “expression”, “DMEM (Gibco-BRL: LIFE TECHNOLOGIES)” for “DMEM”, “serum (Sanko Junyaku)” for “serum”, “Lipofectoamine2000 (Invitrogen).” for “Lipofectoamine2000.”
as §3, §4

β2-adrenoceptor = target: T5, β2-adrenoceptor (Rattus norvegicus, UniProt P10608); assay: β2-adrenoceptor stimulation in isolated tissue: inhibition of spontaneous contraction of pregnant rat uterus (Magnus method); set-up: species or system SD rat; conditions: read-out: β2 receptor EC50
T5 construct: The uterus of pregnant SD rat (Day 21 of gestation) was isolated and longitudinal muscle strip; from tissue; host or cells: pregnant SD rat uterus, longitudinal muscle strip
T5 sequence (P10608 whole entry): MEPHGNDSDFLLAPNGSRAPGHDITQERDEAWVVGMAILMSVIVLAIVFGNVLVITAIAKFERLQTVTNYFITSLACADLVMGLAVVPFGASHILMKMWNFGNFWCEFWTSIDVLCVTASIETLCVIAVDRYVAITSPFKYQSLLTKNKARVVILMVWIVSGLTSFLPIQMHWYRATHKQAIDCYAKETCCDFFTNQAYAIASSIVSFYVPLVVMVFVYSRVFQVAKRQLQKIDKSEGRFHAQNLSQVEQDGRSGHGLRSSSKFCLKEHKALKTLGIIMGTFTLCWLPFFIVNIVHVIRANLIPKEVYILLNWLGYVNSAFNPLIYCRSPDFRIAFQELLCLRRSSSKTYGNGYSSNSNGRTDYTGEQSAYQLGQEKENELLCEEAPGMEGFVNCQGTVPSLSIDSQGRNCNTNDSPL
Experimental: 3) Measurement of β2-adrenoceptor Stimulation
The uterus of pregnant SD rat (Day 21 of gestation) was isolated and longitudinal muscle strip, which was avoided placenta attached part, about 15 mm in length and 5 mm in width was taken and the experiment was conducted according to a Magnus method. The preparation was suspended in a Locke-Ringer solution maintained at 37° C. and gassed with a mixed gas of 95% O2 and 5% CO2 and stretched at a tension of 0.5 g. Spontaneous contraction of uterus was outputted through an isometric force transducer and recorded on an oscillograph through a tachometer. The test compound was added cumulatively into a Magnus bath by every 5 minutes. Potencies were evaluated that the sum of uterine contraction for 5 minutes before the addition of test compounds was taken as a 100%, and compared with the sum of uterine contraction for 5 minutes after the addition of each concentration of test compounds. […] (R)-3′-[[2-[[2-(3-chlorophenyl)-2-hydroxyethyl]-aminoethoxy]-[1,1′-biphenyl]-3-carboxylic acid which was described in example 17 on WO99/65877 was also examined as a comparison example.

[1] = Transport study using human intestinal epithelium tissue (Caco-2); type: in vitro ADME; conditions: inside (pH 6.0) to outside (pH 7.4), 37° C., read-out: permeability coefficient Caco-2 Papp
Experimental: 1) Preparation of Culture Medium.
Dulbecco's modified Eagle's medium (Invitrogen Life Technologies) containing 1% fetal bovine serum (Sanko Jyunyaku), 1% MEM-nonessential amino acids, […] L-glutamine (Invitrogen Life Technologies), 1% penicillin—streptomycin 10000 units/mL-10000 μg/mL (Invitrogen Life Technologies) was prepared and used as a culture medium.
Caco-2 cells (American Type Culture Collection) were subcultured in a culture flask containing the culture medium.
After removing the culture medium before the cell reaches confluent, Caco-2 cells were washed with Hank's balanced salt solution Ca, Mg Free (Invitrogen Life Technologies).
The culture medium in the inside and outside compartments of the Traswell chamber was removed and replaced by a buffer solution containing 10 mM MES (pH 6.0) or 10 mM HEPES (pH7.4). The medium volume in the inside and outside compartments of the chamber was made at 0.1 mL (pH 6.0) and 0.5 mL (pH 7.4), respectively. The medium of the inside compartment was replaced by a buffer solution (pH 6.0) containing test compounds. For evaluating the transport of the test compounds from the inside compartment to the outside compartment, 100 μL of the outside buffer was sampled after incubating at 37° C. for 1 hr.
The apparent permeability coefficient was calculated as the following equation. The amounts of the test compounds in the outside buffer sampled were divided by incubation time. In addition, the amounts of penetration per incubation time (second) were divided by the concentration of the added test compound and the membrane surface.
[formula] • Papp is apparent permeability coefficient. (×10^−6 cm/sec) • dQ/dt is amount of penetration per incubation time. • Co is the initial concentration. (100 μM) • A is the membrane surface area. (0.33 cm^2) • The concentrations of test compounds were determined using LC/MS/MS.

SMILES	β2 receptor I.A. (human β2-adrenoceptor)	β3 receptor I.A. (human β3-adrenoceptor)	EC50 (human β3-adrenoceptor)	EC50 (ddY mice adipocytes)	EC50 (β1-adrenoceptor)	EC50 (human β1-adrenoceptor; CHO cells expressing human β1-adrenoceptor, cAMP, 50% of isoproterenol maximum, read-out: β1 receptor EC50)	β1 receptor I.A. (human β1-adrenoceptor)	EC50 (β2-adrenoceptor)	Papp at 1 h, 100 μM [1]	EC50 (human β1-adrenoceptor; read-out: β1 receptor EC50)	Emax (human β1-adrenoceptor; CHO, read-out: β1 receptor EC50)
O=C(O)c1cccc(-c2cccc(OCCNC[C@H](O)c3cccc(Cl)c3)c2)c1 [Comparison, reference compound]	15%	41%	> 10000 nM	> 1000 nM	1880 nM	740 nM	60%	> 10000 nM			
Cc1cc(C(=O)O)ccc1-c1cc(C)c(OCCN[C@@H](C)[C@H](O)c2ccc(O)cc2)c(C)c1 [Compound 3, 4′-{2-[(1S,2R)-2-Hydroxy-2-(4-hydroxyphenyl)-1-methylethyl-amino]ethoxy}-2,3′,5′-trimethylbiphenyl-4-carboxylic acid]									19.9 ×10⁻⁶ cm/s		
CCc1cc(C(=O)O)ccc1-c1ccc(OCCN[C@@H](C)[C@H](O)c2ccc(O)cc2)cc1 [Compound 153, 2-Ethyl-4′-{(1S,2R)-2-[2-hydroxy-2-(4-hydroxyphenyl)-1-methylethylamino]ethoxy}biphenyl-4-carboxylic acid]	28%	97%	480 nM		> 10000 nM		57%	2680 nM		4320 nM	
CCCc1cc(C(=O)O)ccc1-c1cc(C)c(OCCN[C@@H](C)[C@H](O)c2ccc(O)cc2)c(C)c1 [Compound 26]	49%	125%	57 nM	11.2 nM			74%			2280 nM	
CC(C)c1cc(C(=O)O)ccc1-c1ccc(OCCN[C@@H](C)[C@H](O)c2ccc(O)cc2)cc1 [Compound 156]	27%	239%	25 nM	19.5 nM	> 10000 nM		87%	5870 nM	3.4 ×10⁻⁶ cm/s	18900 nM	
Cc1cc(-c2ccc(C(=O)O)c(C(C)C)c2)cc(C)c1OCCN[C@@H](C)[C@H](O)c1ccc(O)cc1 [Compound 4, 4′-{2-[(1S,2R)-2-Hydroxy-2-(4-hydroxyphenyl)-1-methylethyl-amino]ethoxy}-3-isopropyl-3′,5′-dimethylbiphenyl-4-carboxylic acid]	27%	94%	240 nM				45%		15.7 ×10⁻⁶ cm/s		< 50%
CC(C)NCC(O)c1ccc(O)c(O)c1 (centres unmarked) [Isoproterenol, reference compound]		100%									
CCCc1cc(C(=O)O)ccc1-c1ccc(OCCN[C@@H](C)[C@H](O)c2ccc(O)cc2)cc1 [Compound 160]	32%	91%	200 nM				62%		4 ×10⁻⁶ cm/s	790 nM	
